# Assays:
# [1] = target: T1, PI3K alpha (Homo sapiens, UniProt P42336); experiment: Enzymatic PI3K alpha isoform inhibition (lipid kinase activity, Kinase-Glo); format: biochemical; details: enzymatic assay
# T1 construct: His tag (C); made in house; host or cells: baculovirus; Tn5 (Trichoplusia ni) or TiniPro insect cells
# Description: The kinase reaction is performed in a final volume of 50 μl per well of a half area COSTAR, 96 well plate. The final concentrations of ATP and phosphatidyl inositol in the assay are 5 μM and 6 μg/mL, respectively. The reaction is started by the addition of PI3 kinase, e.g. PI3 kinase δ.
# (§1) In a more preferred assay, the kinase reaction is performed in a final volume of 10 μl per well of a low volume non-binding CORNING, 384 well black plate (Cat. No. #3676). The final concentrations of ATP and phosphatidyl inositol (PI) in the assay are 1 μM and 10 μg/mL, respectively. The reaction is started by the addition of ATP.
# (§2) The components of the assay are added per well as follows:
# (§3) 50 nl test compounds in 90% DMSO per well, in columns 1-20, 8 concentrations (1/3 and 1/3.33 serial dilution step) in single. • Low control: 50 nl of 90% DMSO in half the wells of columns 23-24 (0.45% in final). • High control: 50 nl of reference compound (e.g. compound of Example 7 in WO 2006/122806) in the other half of columns 23-24 (2.5 μM in final). • Standard: 50 nl of reference compound as just mentioned diluted as the test compounds in columns 21-22. • 20 mL ‘buffer’ are prepared per assay: • 200 μl of 1M TRIS HCl pH7.5 (10 mM in final) • 60 μl of 1M MgCl2 (3 mM in final) • 500 μl of 2M NaCl (50 mM in final) • 100 μl of 10% CHAPS (0.05% in final) • 200 μl of 100 mM DTT (1 mM in final) • 18.94 mL of nanopure water • 10 mL ‘PI’ are prepared per assay: • 200 μl of 1 mg/mL 1-alpha-Phosphatidylinositol (Liver Bovine, Avanti Polar Lipids Cat. No. 840042C MW=909.12) prepared in 3% OctylGlucoside (10 μg/mL in final) • 9.8 mL of ‘buffer’ • 10 mL ‘ATP’ are prepared per assay: • 6.7 μl of 3 mM stock of ATP giving a final concentration of 1 μM per well • 10 mL of ‘buffer’ • 2.5 mL of each PI3K construct are prepared per assay in ‘PI’ with the following final concentration: • 10 nM PI3K alfa EMV B1075 • 25 nM beta EMV BV949 • 10 nM delta EMV BV1060 • 150 nM gamma EMV BV950 • 5 μl of ‘PI/PI3K’ are added per well. • 5 μl ‘ATP’ are added per well to start the reaction. • The plates are then incubated at room temperature for 60 minutes (alfa, beta, delta) or 120 minutes (gamma). • The reaction is terminated by the addition of 10 μl Kinase-Glo (Promega Cat. No. #6714). • The assay plates are read after 10 minutes in Synergy 2 reader (BioTek, Vermont USA) with an integration time of 100 milliseconds and sensitivity set to 191. • Output: The High control is around 60'000 counts and the Low control is 30'000 or lower • This luminescence assay gives a useful Z′ ratio between 0.4 and 0.7
# (§4) IC50 is determined by a four parameter curve fitting routine that comes along with “excel fit”. A four parameter logistic equation is used to calculate IC50 values (IDBS XLfit) of the percentage inhibition of each compound at 8 concentrations (usually 10, 3.0, 1.0, 0.3, 0.1, 0.030, 0.010 and 0.003 μM). Alternatively, IC50 values are calculated using idbsXLfit model 204, which is a 4 parameter logistic model.
# (§5) Yet alternatively, for an ATP depletion assay, compounds of the formula I to be tested are dissolved in DMSO and directly distributed into a white 384-well plate at 0.5 μl per well. To start the reaction, 10 μl of 10 nM PI3 kinase and 5 μg/mL 1-alpha-phosphatidylinositol (PI) are added into each well followed by 10 μl of 2 μM ATP. The reaction is performed until approx 50% of the ATP is depleted, and then stopped by the addition of 20 μl of Kinase-Glo solution (Promega Corp., Madison, Wis., USA). The stopped reaction is incubated for 5 minutes and the remaining ATP is then detected via luminescence. IC50 values are then determined.
# [2] = target: T2, PI3K delta (Homo sapiens, UniProt O00329); experiment: Enzymatic PI3K delta isoform inhibition (lipid kinase activity, Kinase-Glo); format: biochemical; details: enzymatic assay
# T2 construct: for the full-length p110-d subunit are generated and fused by overlapping PCR; His tag (C); made in house; host or cells: baculovirus; Tn5 (Trichoplusia ni) or TiniPro insect cells
# Description: as §1, §2, §3, §4, §5
# T1 sequence (P42336 with tags, fused parts or gaps limits assumed): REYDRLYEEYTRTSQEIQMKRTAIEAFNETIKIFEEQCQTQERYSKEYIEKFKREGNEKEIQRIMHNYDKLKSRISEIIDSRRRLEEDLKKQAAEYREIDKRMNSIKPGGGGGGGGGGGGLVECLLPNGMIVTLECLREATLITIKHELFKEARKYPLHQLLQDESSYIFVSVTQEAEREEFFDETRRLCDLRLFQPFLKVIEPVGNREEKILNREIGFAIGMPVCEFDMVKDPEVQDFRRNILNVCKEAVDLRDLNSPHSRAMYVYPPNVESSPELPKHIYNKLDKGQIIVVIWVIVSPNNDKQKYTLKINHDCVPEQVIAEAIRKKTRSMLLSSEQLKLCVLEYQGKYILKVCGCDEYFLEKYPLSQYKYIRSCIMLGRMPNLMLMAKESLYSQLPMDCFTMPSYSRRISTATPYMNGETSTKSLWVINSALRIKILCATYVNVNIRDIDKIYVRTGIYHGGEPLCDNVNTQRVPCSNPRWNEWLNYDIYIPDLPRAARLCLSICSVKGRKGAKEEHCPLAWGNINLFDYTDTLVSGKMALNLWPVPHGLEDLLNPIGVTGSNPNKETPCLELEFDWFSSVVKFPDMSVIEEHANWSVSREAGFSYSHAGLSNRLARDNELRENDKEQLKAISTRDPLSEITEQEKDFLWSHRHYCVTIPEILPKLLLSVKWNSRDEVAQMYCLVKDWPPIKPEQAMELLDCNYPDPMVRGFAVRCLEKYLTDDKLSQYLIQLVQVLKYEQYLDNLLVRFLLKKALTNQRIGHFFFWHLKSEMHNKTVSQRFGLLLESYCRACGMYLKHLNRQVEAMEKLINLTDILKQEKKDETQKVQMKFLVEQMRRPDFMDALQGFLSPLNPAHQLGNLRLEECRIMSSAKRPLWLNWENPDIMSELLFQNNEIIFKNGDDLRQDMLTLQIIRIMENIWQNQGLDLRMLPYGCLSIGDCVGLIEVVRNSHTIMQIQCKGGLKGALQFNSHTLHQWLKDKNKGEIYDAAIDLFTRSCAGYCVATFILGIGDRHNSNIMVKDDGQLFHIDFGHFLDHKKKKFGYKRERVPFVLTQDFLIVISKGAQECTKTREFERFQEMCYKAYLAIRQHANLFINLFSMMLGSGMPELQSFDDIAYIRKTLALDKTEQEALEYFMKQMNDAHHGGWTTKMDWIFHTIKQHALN
# T2 sequence (O00329 with tags, fused parts or gaps limits assumed): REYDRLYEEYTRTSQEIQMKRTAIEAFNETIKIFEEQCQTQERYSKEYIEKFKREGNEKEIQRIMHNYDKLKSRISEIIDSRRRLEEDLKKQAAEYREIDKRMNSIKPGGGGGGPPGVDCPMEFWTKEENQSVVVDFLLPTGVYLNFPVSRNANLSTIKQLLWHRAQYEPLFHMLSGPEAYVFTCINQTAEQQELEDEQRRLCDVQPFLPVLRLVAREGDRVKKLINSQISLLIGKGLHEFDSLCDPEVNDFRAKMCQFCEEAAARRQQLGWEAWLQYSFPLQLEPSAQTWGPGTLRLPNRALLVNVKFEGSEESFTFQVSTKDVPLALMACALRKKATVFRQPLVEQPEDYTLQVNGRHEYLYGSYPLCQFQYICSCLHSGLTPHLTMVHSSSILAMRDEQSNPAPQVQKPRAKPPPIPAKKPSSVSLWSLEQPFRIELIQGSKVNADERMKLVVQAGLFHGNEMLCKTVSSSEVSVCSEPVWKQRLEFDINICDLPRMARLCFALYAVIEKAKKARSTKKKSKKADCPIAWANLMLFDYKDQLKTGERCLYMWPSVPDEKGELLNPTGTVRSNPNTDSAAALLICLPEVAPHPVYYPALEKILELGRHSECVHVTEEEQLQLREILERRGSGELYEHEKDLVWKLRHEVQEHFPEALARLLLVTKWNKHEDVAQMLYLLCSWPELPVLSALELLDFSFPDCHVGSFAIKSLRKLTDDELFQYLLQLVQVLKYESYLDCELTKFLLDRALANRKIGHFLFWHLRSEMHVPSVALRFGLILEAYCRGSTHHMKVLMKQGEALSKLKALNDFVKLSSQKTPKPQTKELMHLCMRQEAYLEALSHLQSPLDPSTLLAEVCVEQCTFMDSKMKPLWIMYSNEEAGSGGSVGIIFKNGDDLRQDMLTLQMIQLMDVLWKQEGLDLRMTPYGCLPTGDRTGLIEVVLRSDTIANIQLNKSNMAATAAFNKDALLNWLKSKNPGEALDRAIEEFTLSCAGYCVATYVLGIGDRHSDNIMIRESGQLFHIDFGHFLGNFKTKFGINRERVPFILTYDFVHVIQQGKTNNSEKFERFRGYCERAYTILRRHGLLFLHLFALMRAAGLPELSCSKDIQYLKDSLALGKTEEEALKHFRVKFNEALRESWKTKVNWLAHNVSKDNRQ
SMILES,IC50 [1],IC50 [2]
"Nc1ncc(-c2ccnc3ccc(O[C@H]4CCN(C(=O)C5CCOCC5)C4)cc23)cc1C(F)(F)F [Example A29, {(S)-3-[4-(6-Amino-5-trifluoromethyl-pyridin-3-yl)-quinolin-6-yloxy]-pyrrolidin-1-yl}-(tetrahydro-pyran-4-yl)-methanone]",30 nM,17 nM
"COc1ncc(-c2ccnc3ccc(O[C@H]4CCN(C(=O)c5ccc(=O)[nH]c5)C4)cc23)cc1C(F)(F)F [Example A19, 5-{(S)-3-[4-(6-Methoxy-5-trifluoromethyl-pyridin-3-yl)-quinolin-6-yloxy]-pyrrolidine-1-carbonyl}-1H-pyridin-2-one]",85 nM,7 nM
"CC(=O)N1CC[C@@H](C(=O)N2CC[C@H](Oc3ccc4nccc(-c5cnc(S(C)(=O)=O)c(C)c5)c4c3)C2)C1 [Example A21, 1-((R)-3-{(S)-3-[4-(6-Methanesulfonyl-5-methyl-pyridin-3-yl)-quinolin-6-yloxy]-pyrrolidine-1-carbonyl}-pyrrolidin-1-yl)-ethanone]",822 nM,7 nM
"CC(=O)N1CC[C@@H](C(=O)N2CC[C@H](Oc3ccc4nccc(-c5cnc(OC(F)F)c(C)c5)c4c3)C2)C1 [Example A35, 1-((R)-3-{(S)-3-[4-(6-Difluoromethoxy-5-methyl-pyridin-3-yl)-quinolin-6-yloxy]-pyrrolidine-1-carbonyl}-pyrrolidin-1-yl)-ethanone]",1230 nM,29 nM
"CS(=O)(=O)c1ncc(-c2ccnc3ccc(O[C@H]4CCN(C(=O)C5CCOCC5)C4)cc23)cc1C(F)F [Example A17, {(S)-3-[4-(5-Difluoromethyl-6-methanesulfonyl-pyridin-3-yl)-quinolin-6-yloxy]-pyrrolidin-1-yl}-(tetrahydro-pyran-4-yl)-methanone]",341 nM,7 nM
"COc1ncc(-c2ccnc3ccc(O[C@H]4CCN(C(=O)C5CCOCC5)C4)cc23)cc1C#N [Example A3, 2-Methoxy-5-{6-[(S)-1-(tetrahydro-pyran-4-carbonyl)-pyrrolidin-3-yloxy]-quinolin-4-yl}-nicotinonitrile]",426 nM,3 nM
"COc1ncc(-c2ccnc3ccc(O[C@H]4CCN(C(=O)C5CCS(=O)(=O)CC5)C4)c(C)c23)cc1C(F)F [Example B4, {(S)-3-[4-(5-Difluoromethyl-6-methoxy-pyridin-3-yl)-5-methyl-quinolin-6-yloxy]-pyrrolidin-1-yl}-(1,1-dioxo-hexahydro-1lambda*6*-thiopyran-4-yl)-methanone]",177 nM,5 nM
"Nc1ncc(-c2ccnc3ccc(O[C@H]4CCN(C(=O)C5CCS(=O)(=O)CC5)C4)cc23)cc1C(F)(F)F [Example A31, {(S)-3-[4-(6-Amino-5-trifluoromethyl-pyridin-3-yl)-quinolin-6-yloxy]-pyrrolidin-1-yl}-(1,1-dioxo-hexahydro-1lambda*6*-thiopyran-4-yl)-methanone]",30 nM,20 nM
"Cc1cc(-c2ccnc3ccc(O[C@H]4CCN(C(=O)C5CCS(=O)(=O)CC5)C4)cc23)cnc1OC(F)F [Example A38, {(S)-3-[4-(6-Difluoromethoxy-5-methyl-pyridin-3-yl)-quinolin-6-yloxy]-pyrrolidin-1-yl}-(1,1-dioxo-hexahydro-1lambda*6*-thiopyran-4-yl)-methanone]",1650 nM,48 nM
"COc1ncc(-c2ccnc3ccc(O[C@H]4CCN(C(=O)[C@@H]5CCN(C(C)=O)C5)C4)cc23)cc1C(F)(F)F [Example A11, 1-((R)-3-{(S)-3-[4-(6-Methoxy-5-trifluoromethyl-pyridin-3-yl)-quinolin-6-yloxy]-pyrrolidine-1-carbonyl}-pyrrolidin-1-yl)-ethanone]",257 nM,5 nM
"COc1ncc(-c2ccnc3ccc(O[C@H]4CCN(C(=O)C5CCOCC5)C4)cc23)cc1F [Example A13, {(S)-3-[4-(5-Fluoro-6-methoxy-pyridin-3-yl)-quinolin-6-yloxy]-pyrrolidin-1-yl}-(tetrahydro-pyran-4-yl) methanone]",802 nM,5 nM
"COc1ncc(-c2ccnc3ccc(O[C@H]4CCN(C(=O)C5CCOCC5)C4)cc23)cc1C(F)(F)F [Example A7, {(S)-3-[4-(6-Methoxy-5-trifluoromethyl-pyridin-3-yl)-quinolin-6-yloxy]-pyrrolidin-1-yl}-(tetrahydro-pyran-4-yl)-methanone]",96 nM,4 nM
"Cc1cc(-c2ccnc3ccc(O[C@H]4CCN(C(=O)C5CCS(=O)(=O)CC5)C4)cc23)cnc1S(C)(=O)=O [Example A23, (1,1-Dioxo-hexahydro-1lambda*6*-thiopyran-4-yl)-{(S)-3-[4-(6-methanesulfonyl-5-methyl-pyridin-3-yl)-quinolin-6-yloxy]-pyrrolidin-1-yl}-methanone]",1140 nM,10 nM
"COc1ncc(-c2ccnc3ccc(O[C@H]4CCN(C(=O)c5cn(C)cn5)C4)cc23)cc1C(F)(F)F [Example A26, {(S)-3-[4-(6-Methoxy-5-trifluoromethyl-pyridin-3-yl)-quinolin-6-yloxy]-pyrrolidin-1-yl}-(1-methyl-1H-imidazol-4-yl)-methanone]",121 nM,13 nM
"CS(=O)(=O)c1ncc(-c2ccnc3ccc(O[C@H]4CCN(C(=O)C5CCOCC5)C4)cc23)cc1C(F)(F)F [Example A37, {(S)-3-[4-(6-Methanesulfonyl-5-trifluoromethyl-pyridin-3-yl)-quinolin-6-yloxy]-pyrrolidin-1-yl}-(tetrahydro-pyran-4-yl)-methanone]",745 nM,43 nM
"CCC(=O)N1CC[C@H](Oc2ccc3nccc(-c4cnc(OC)c(C)c4)c3c2)C1 [Example A2, 1-{(S)-3-[4-(6-Methoxy-5-methyl-pyridin-3-yl)-quinolin-6-yloxy]-pyrrolidin-1-yl}-propan-1-one]",264 nM,< 3 nM
"COc1ncc(-c2ccnc3ccc(O[C@H]4CCN(C(=O)C5CCS(=O)(=O)CC5)C4)cc23)cc1C(F)(F)F [Example A8, (1,1-Dioxo-hexahydro-1lambda*6*-thiopyran-4-yl)-{(S)-3-[4-(6-methoxy-5-trifluoromethyl-pyridin-3-yl)-quinolin-6-yloxy]-pyrrolidin-1-yl}-methanone]",131 nM,4 nM
"COc1ncc(-c2ccnc3ccc(O[C@H]4CCN(C(=O)C5CCN(C(C)=O)CC5)C4)cc23)cc1C(F)(F)F [Example A16, 1-(4-{(S)-3-[4-(6-Methoxy-5-trifluoromethyl-pyridin-3-yl)-quinolin-6-yloxy]-pyrrolidine-1-carbonyl}-piperidin-1-yl) ethanone]",207 nM,7 nM
"CC(=O)N1CC[C@@H](C(=O)N2CC[C@H](Oc3ccc4nccc(-c5cnc(OC(F)F)c(C)c5)c4c3C)C2)C1 [Example B7, 1-((R)-3-{(S)-3-[4-(6-Difluoromethoxy-5-methyl-pyridin-3-yl)-5-methyl-quinolin-6-yloxy]-pyrrolidine-1-carbonyl}-pyrrolidin-1-yl)-ethanone]",869 nM,20 nM

# Reference: US20150148377A1, “Quinoline Derivatives” (NOVARTIS AG, priority 2011, published 2015)
